Assays:
Assay in all cases: relative viability (nuclei count vs DMSO), 5 days (fraction); higher = more cells survive
FG-4592 + Alpelisib = compound: Cc1nc(C(=O)NCC(=O)O)c(O)c2ccc(Oc3ccccc3)cc12 [FG-4592] + Cc1nc(NC(=O)N2CCC[C@H]2C(N)=O)sc1-c1ccnc(C(C)(C)C(F)(F)F)c1 [Alpelisib] (partner 2 µM)
Outline: (§1)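 Lung cancer cell lines were seeded in 1536-well plates and dosed by pin tool the next day, with either a single drug or a fixed anchor-drug dose combined with five library-drug doses (not always all listed) spaced in √10 steps. Five days later, one step fixed the cells and stained their nuclei (final 0.05% Triton X-100, 1% formaldehyde, 1 ug/ml Hoechst), and nuclei were counted on 4× images. Relative viability is the nuclei count in treated wells divided by the count in vehicle wells, and each value is the median of duplicate plates.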

IU1-47 + Lapatinib = compound: CC1=CC(=C(N1C2=CC=C(C=C2)Cl)C)C(=O)CN3CCCCC3 [IU1-47] + CS(=O)(=O)CCNCc1ccc(-c2ccc3ncnc(Nc4ccc(OCc5cccc(F)c5)c(Cl)c4)c3c2)o1 [Lapatinib] (partner 2 µM)
Outline: as §1

FG-4592 + Olaparib = compound: Cc1nc(C(=O)NCC(=O)O)c(O)c2ccc(Oc3ccccc3)cc12 [FG-4592] + O=C(c1cc(Cc2n[nH]c(=O)c3ccccc23)ccc1F)N1CCN(C(=O)C2CC2)CC1 [Olaparib] (partner 8 µM)
Outline: as §1

FG-4592 + Tozasertib = compound: Cc1nc(C(=O)NCC(=O)O)c(O)c2ccc(Oc3ccccc3)cc12 [FG-4592] + Cc1cc(Nc2cc(N3CCN(C)CC3)nc(Sc3ccc(NC(=O)C4CC4)cc3)n2)n[nH]1 [Tozasertib] (partner 0.1 µM)
Outline: as §1

Cell Line | relative viability (FG-4592 + Alpelisib; first compound 0.08 µM) | relative viability (FG-4592 + Alpelisib; first compound 0.253 µM) | relative viability (FG-4592 + Alpelisib; first compound 0.8 µM) | relative viability (FG-4592 + Alpelisib; first compound 2.53 µM) | relative viability (FG-4592 + Alpelisib; first compound 8 µM) | relative viability (IU1-47 + Lapatinib; first compound 0.08 µM) | relative viability (IU1-47 + Lapatinib; first compound 0.253 µM) | relative viability (IU1-47 + Lapatinib; first compound 0.8 µM) | relative viability (IU1-47 + Lapatinib; first compound 2.53 µM) | relative viability (IU1-47 + Lapatinib; first compound 8 µM) | relative viability (FG-4592 + Olaparib; first compound 0.08 µM) | relative viability (FG-4592 + Olaparib; first compound 0.8 µM) | relative viability (FG-4592 + Olaparib; first compound 2.53 µM) | relative viability (FG-4592 + Olaparib; first compound 8 µM) | relative viability (FG-4592 + Tozasertib; first compound 0.08 µM) | relative viability (FG-4592 + Tozasertib; first compound 0.253 µM) | relative viability (FG-4592 + Tozasertib; first compound 0.8 µM) | relative viability (FG-4592 + Tozasertib; first compound 2.53 µM) | relative viability (FG-4592 + Tozasertib; first compound 8 µM) | relative viability (FG-4592 + Olaparib; first compound 0.253 µM)
HCC-78 | 0.379 | 0.339 | 0.223 | 0.287 | 0.308 | 0.721 | 0.347 | 1 | 0.717 | 0.712 | 0.717 | 0.788 | 0.759 | 0.733 | 0.402 | 0.481 | 0.491 | 0.486 | 0.414 | –
HCC-366 | 0.285 | 0.386 | 0.408 | 0.377 | 0.392 | 1.04 | 0.938 | 1.26 | – | 1.15 | 0.331 | 0.352 | 0.435 | 0.296 | 0.226 | 0.0945 | 0.123 | 0.0834 | 0.0885 | 0.353
HCC-827 | 0.948 | 0.945 | 0.952 | 0.951 | 0.992 | 0.198 | 0.215 | 0.197 | 0.19 | 0.207 | 0.591 | 0.625 | 0.705 | 0.729 | 0.385 | 0.372 | 0.369 | 0.457 | 0.406 | 0.624
HOP-62 | 0.998 | 0.935 | 0.771 | 1.03 | 0.929 | 1.14 | 1.01 | 1.12 | 0.844 | 0.954 | 0.373 | 0.496 | 0.383 | 0.338 | 0.406 | 0.393 | 0.381 | 0.367 | 0.41 | 0.561
IA-LM | 0.827 | 0.707 | 0.878 | 0.54 | 0.433 | – | 1.08 | 0.832 | 0.997 | 0.664 | 0.712 | 0.663 | 0.81 | 0.727 | – | – | – | – | – | 0.623
LC-2-ad | 0.799 | 0.842 | 0.865 | 0.943 | 0.926 | 1.09 | 0.928 | 0.836 | 1.25 | 1.04 | 0.683 | 0.725 | 0.755 | 0.782 | 0.545 | 0.433 | – | 0.421 | 0.465 | 0.694
LCLC-97TM1 | 0.25 | 0.214 | 0.167 | – | 0.29 | 1.34 | 0.635 | 0.92 | – | 0.78 | 0.444 | – | 0.329 | 0.421 | 0.173 | 0.214 | 0.23 | 0.244 | 0.18 | 0.417
LCLC-103H | 0.887 | 0.875 | 0.749 | 0.966 | 1.06 | – | – | – | – | – | 0.746 | 0.695 | 0.708 | 0.751 | 0.42 | 0.529 | 0.572 | 0.557 | 0.411 | 0.751
LK-2 | – | 1.05 | – | 0.929 | 1.03 | 1.15 | 1.26 | 0.963 | 0.703 | 0.517 | 0.556 | 0.613 | 0.701 | 0.662 | 0.155 | 0.17 | – | 0.175 | 0.186 | 0.787
LOU-NH91 | 0.698 | 0.614 | 0.613 | 0.719 | 0.724 | 0.784 | 0.877 | 0.812 | 0.762 | 0.702 | 0.93 | 0.902 | 0.959 | 0.953 | 0.709 | 0.669 | 0.696 | 0.634 | 0.717 | 0.85
LU99A | 0.497 | 0.492 | 0.402 | 0.579 | 0.532 | 0.933 | 1.07 | 1.16 | 1.02 | 1 | 0.268 | – | 0.276 | 0.29 | 0.289 | 0.293 | 0.243 | 0.334 | 0.297 | 0.242
NCI-H441 | 0.849 | 0.704 | 0.853 | 0.878 | 0.519 | – | – | – | – | – | 0.431 | 0.49 | 0.502 | 0.493 | 0.679 | 0.521 | 0.712 | 0.619 | 0.688 | 0.462
NCI-H522 | – | – | – | – | – | – | – | – | – | – | 0.766 | – | 0.588 | 0.678 | 0.493 | 0.625 | 0.545 | 0.539 | 0.437 | 0.644
NCI-H1299 | 1.06 | 0.999 | 1.05 | 1.04 | 1.04 | 0.962 | 0.982 | 0.975 | 1.02 | 0.934 | 0.935 | 1.01 | 1.01 | 0.971 | – | – | – | – | – | 0.906
NCI-H1563 | 1.03 | 0.949 | 0.939 | 0.936 | 0.845 | 0.935 | 0.914 | 1.25 | 0.793 | 0.73 | – | – | – | – | – | – | – | – | – | –
NCI-H1623 | – | – | – | – | – | – | – | – | – | – | – | – | – | – | 0.434 | 0.422 | 0.404 | 0.45 | 0.436 | –
NCI-H1648 | – | – | – | – | – | – | – | – | – | – | 0.712 | – | 0.483 | 1.43 | 0.536 | 0.527 | 0.515 | 0.47 | 0.542 | 0.647
NCI-H1650 | – | – | – | – | – | 0.755 | 0.717 | 0.935 | 0.57 | 0.351 | 0.786 | 0.843 | 0.781 | 0.869 | 0.409 | 0.277 | 0.427 | 0.456 | 0.406 | 0.721
NCI-H1703 | 0.255 | 0.354 | 0.295 | 0.326 | 0.353 | 1.21 | 1.2 | 1.03 | 1.39 | 0.96 | 0.428 | 0.336 | 0.341 | 0.423 | – | – | – | – | – | 0.337
NCI-H1792 | 0.78 | 0.635 | 0.544 | 0.619 | 0.721 | 0.923 | 0.999 | 0.988 | 0.956 | 0.514 | 0.487 | – | 0.457 | 0.497 | – | – | – | – | – | 0.432
NCI-H2342 | – | – | – | – | – | – | – | – | – | – | 0.433 | 0.452 | 0.436 | 0.422 | 0.493 | 0.43 | 0.442 | 0.464 | 0.421 | 0.436
SW 900 | – | – | – | – | – | – | – | – | – | – | – | – | 0.812 | 0.794 | 0.575 | 0.675 | 0.527 | 0.417 | 0.531 | 0.946
